By IC50 is commonly meant the concentration that inhibits the measured activity by half.

The values that follow come from US20230066011A1, “PYRROLOPYRIMIDINE DERIVATIVE, AND PHARMACEUTICAL COMPOSITION FOR PREVENTING OR TREATING PROTEIN KINASE-RELATED DISEASE COMPRISING SAME AS ACTIVE INGREDIENT” (VORONOI CO., LTD., priority 2019, published 2023).

The structures appear in SMILES notation.

The target in this experiment is T1, CLK1 (Homo sapiens, UniProt P49759).
T1 construct: purchased DiscoverX Corp. (ScanMAX Kinase analysis panel, service)
T1 sequence (P49759 whole entry): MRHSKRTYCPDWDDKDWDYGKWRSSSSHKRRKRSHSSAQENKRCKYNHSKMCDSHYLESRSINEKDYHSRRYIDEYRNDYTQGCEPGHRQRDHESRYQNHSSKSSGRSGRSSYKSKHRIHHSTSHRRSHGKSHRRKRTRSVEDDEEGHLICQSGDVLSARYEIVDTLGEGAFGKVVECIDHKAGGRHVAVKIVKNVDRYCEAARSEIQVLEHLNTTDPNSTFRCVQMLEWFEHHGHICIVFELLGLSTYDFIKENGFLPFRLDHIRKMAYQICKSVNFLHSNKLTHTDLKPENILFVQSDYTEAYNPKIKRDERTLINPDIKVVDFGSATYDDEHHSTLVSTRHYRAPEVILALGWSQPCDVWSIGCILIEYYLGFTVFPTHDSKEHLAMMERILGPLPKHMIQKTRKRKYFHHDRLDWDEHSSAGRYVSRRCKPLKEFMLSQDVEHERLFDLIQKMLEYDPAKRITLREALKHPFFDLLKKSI
The experiment can be described thus: Kinase HotSpot service (Reaction Biology Corporation), CLK1. Format: biochemical. To be noted: ATP 10 uM, read-out: CLK1 IC50 (values indicated by *). As for the experimental part:
The inhibitory activities of the compounds were measured at a 3-fold concentration gradient starting from a maximum compound concentration of […], and the values measured using the Kinase HotSpot service (Reaction Biology Corporation) are indicated by an asterisk (*).
All the experimental methods were performed as provided by the Kinase HotSpot Customer Protocol (http://www.reactionbiology.com//Kinase_Assay_Protocol).

With `CCCNc1nc(Nc2ccc(S(=O)(=O)N3CCC(N4CCOCC4)CC3)cc2OC)nc2[nH]cc(C(F)(F)F)c12` [Example 161, N^2-(2-methoxy-4-((4-morpholinopiperidin-1-yl)sulfonyl)phenyl)-N^4-propyl-5-(trifluoromethyl)-7H-pyrrolo[2,3-d]pyrimidine-2,4-diamine], the IC50 was less than 100 nM. Regarding `COc1cc(S(=O)(=O)N2CCC(N3C[C@H]4C[C@@H]3CO4)CC2)ccc1Nc1nc(C2CC2)c2c(C(F)(F)F)c[nH]c2n1` [Example 473, N-(4-((4-((1R,4R)-2-oxa-5-azabicyclo[2.2.1]heptan-5-yl)piperidin-1-yl)sulfonyl)-2-methoxyphenyl)-4-cyclopropyl-5-(trifluoromethyl)-7H-pyrrolo[2,3-d]pyrimidin-2-amine], the IC50 was less than 100 nM.
